Earlier results in patent publication US9259405B2, “Method of treating functional somatic syndromes with combination of famciclovir and diclofenac” (INNOVATIVE MED CONCEPTS, LLC, priority 2012, dated 2016).

Tested on: fibromyalgia patients
Settings: J. Rheumatology (2004) 31, 783-784

SMILES: CC(C)[C@H](N)C(=O)OCCOCn1cnc2c(=O)[nH]c(N)nc21 [valacyclovir]
- treatment of fibromyalgia patients: not successful
